For data set [1] the following is noted: in vivo; cited from earlier work.
The test system of data set [2] is male IOPS Han Ico Wistar rats, septic shock by LPS Salmonella typhimurium.
Setting [3] is: venous blood at euthanasia H 6h30, individual rats, selenite alone = group 2 perfusion.
Setting [4] is: venous blood gases at euthanasia H 6h30, individual rats, selenite alone = group 2 perfusion.

Molecules are shown by their SMILES.

As for `[Se]` [selenium], the “NOAEL No Adverse Effect Level determined in nutrition, per kg” value in data set [1] is 11 μg/kg per day.
For `O=[Se](O)O` [sodium selenite], the “ScvO2 or SaO2” value in data set [2] (blood at euthanasia H 6h30, individual rats, selenite alone = group 2 perfusion) came to 8.9. In addition, in data set [2] (creatinine at H 6h30, individual rats, selenite alone = group 2 perfusion), the Creat came to 156. In data set [2] (glycemia at H 6h30, individual rats, selenite alone = group 2 perfusion), this compound came in with a Gly of 0.27. Further, the survival of animals result in data set [2] (group 4: control B2 then Na2SeO3 alone in 3 flash injections every 10 min, LPS 50 mg/kg) was “do not survive”. The Lactate level in data set [2] (individual rats, LPS 50 mg/kg, sample at H 6h30, selenite alone = group 2, 0.3 mg/kg Se perfused over 30 min, Sel-P over 30 min, combination = Sel-P then 3 flash injections of selenite 0.1 mg/kg) came out at 8.75 mmol/L. For the same compound, in data set [2] (setting [3]), the “CO3H—” value was found to be 19.6 and the Venous lactate was 8.75 mmol/L. For the same compound, in data set [2] (setting [4]), the PCO2 is recorded as 97 mmHg, the PaO2 came to 16 mmHg and the pH is on record as 6.906.

Source of the values: patent US11224633B2, “Kit for treating sepsis and/or any systemic (SIRS) or damaging cellular hyperinflammation” (priority 2015, dated 2022).
